How the values were obtained:
[1] = Liquid, Pycnometric method
[2] = molar heat capacity at constant pressure; conditions: Liquid, metal-bellows calorimeter

COC [dimethyl ether]
Conditions | mass density, [1] [kg/m3] | molar heat capacity at constant pressure, [2] [J/K/mol]
310 K, 2000 kPa | 643.5 | 123.92
310 K, 3000 kPa | 646 | 122.08
310 K, 4000 kPa | 648 | 121.62
310 K, 5000 kPa | 650.2 | 121.16
320 K, 2000 kPa | 626 | 127.61
320 K, 3000 kPa | 628.7 | 125.77
320 K, 4000 kPa | 631.1 | 124.85
320 K, 5000 kPa | 634.3 | 124.85
330 K, 2000 kPa | 606.5 | 131.3
330 K, 3000 kPa | 609.8 | 128.53
330 K, 4000 kPa | 613.4 | 128.07
330 K, 5000 kPa | 616.5 | 127.15
340 K, 2000 kPa | 585.3 | 137.74
340 K, 3000 kPa | 589.6 | 134.98
340 K, 4000 kPa | 593.6 | 132.22
340 K, 5000 kPa | 597.4 | 129.45
350 K, 3000 kPa | 566.8 | 140.51
350 K, 4000 kPa | 572 | 137.28
350 K, 5000 kPa | 576.7 | 132.68
360 K, 3000 kPa | 540.2 | 153.87
360 K, 4000 kPa | 547.4 | 145.12
360 K, 5000 kPa | 553.5 | 136.36
